{
  "source": "PubChem BioAssay AID1963422",
  "about": "(Molecular Pharmacology Branch, DTP, NCI, 2024);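 further: compound exposure lasted 7 days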;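 on viability, T/C: 100% = DMSO vehicle control wells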",
  "test_system": "463943-066-T-J2-PDC complex spheroid growth",
  "assay": "Anticancer human tumor 463943-066-T-J2-PDC patient-derived colon adenocarcinoma cell line growth inhibition [Asc]",
  "details": "for IC50: curve of first compound; for viability, T/C: stronger effect = lower value",
  "outline": "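Concentration series start at each agent's clinical Cmax, or at 10 microM when none is established, and drop in half-log steps; agents are applied alone or together to complex spheroids built with HUVEC and hMSC.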",
  "data": [
    {"smiles": "Cc1nc(N2CCC3(CC2)COC(C)C3N)c(CO)nc1Sc1ccnc(N)c1Cl", "note": "(configuration not stated) + Cc1c(S(C)(=O)=O)c(-c2cc(F)cc(N3CCN(c4ccc(NS(=O)(=O)c5ccc(NC(CCN6CCC(C(=O)OCCCP(=O)(O)O)CC6)CSc6ccccc6)c(S(=O)(=O)C(F)(F)F)c5)cc4)CC3)c2)c(-c2ccc(Cl)cc2)n1C(C)C", "values": [
      {"measurement": "IC50", "setting": "second compound 0.0316 µM", "result": "> 3", "unit": "µM"},
      {"measurement": "IC50", "setting": "second compound 0.1 µM", "result": "> 3", "unit": "µM"},
      {"measurement": "IC50", "setting": "second compound 0.316 µM", "result": "> 3", "unit": "µM"},
      {"measurement": "IC50", "setting": "second compound 1 µM", "result": "> 3", "unit": "µM"},
      {"measurement": "IC50", "setting": "second compound 3.16 µM", "result": 0.185, "unit": "µM"},
      {"measurement": "IC50", "setting": "second compound 10 µM", "result": "< 0.00949", "unit": "µM"},
      {"measurement": "viability, T/C", "setting": "second compound 0.0316 µM, first compound 0.00949 µM", "result": 106, "unit": "%"},
      {"measurement": "viability, T/C", "setting": "second compound 0.0316 µM, first compound 0.03 µM", "result": 86.8, "unit": "%"},
      {"measurement": "viability, T/C", "setting": "second compound 0.0316 µM, first compound 0.0949 µM", "result": 87.3, "unit": "%"},
      {"measurement": "viability, T/C", "setting": "second compound 0.0316 µM, first compound 0.3 µM", "result": 87.3, "unit": "%"},
      {"measurement": "viability, T/C", "setting": "second compound 0.0316 µM, first compound 0.949 µM", "result": 77.8, "unit": "%"},
      {"measurement": "viability, T/C", "setting": "second compound 0.0316 µM, first compound 3 µM", "result": 63.9, "unit": "%"},
      {"measurement": "viability, T/C", "setting": "second compound 0.1 µM, first compound 0.00949 µM", "result": 93.1, "unit": "%"},
      {"measurement": "viability, T/C", "setting": "second compound 0.1 µM, first compound 0.03 µM", "result": 87.2, "unit": "%"},
      {"measurement": "viability, T/C", "setting": "second compound 0.1 µM, first compound 0.0949 µM", "result": 90.7, "unit": "%"},
      {"measurement": "viability, T/C", "setting": "second compound 0.1 µM, first compound 0.3 µM", "result": 82.4, "unit": "%"},
      {"measurement": "viability, T/C", "setting": "second compound 0.1 µM, first compound 0.949 µM", "result": 75.1, "unit": "%"},
      {"measurement": "viability, T/C", "setting": "second compound 0.1 µM, first compound 3 µM", "result": 58.1, "unit": "%"},
      {"measurement": "viability, T/C", "setting": "second compound 0.316 µM, first compound 0.00949 µM", "result": 84, "unit": "%"},
      {"measurement": "viability, T/C", "setting": "second compound 0.316 µM, first compound 0.03 µM", "result": 85.1, "unit": "%"},
      {"measurement": "viability, T/C", "setting": "second compound 0.316 µM, first compound 0.0949 µM", "result": 78.5, "unit": "%"},
      {"measurement": "viability, T/C", "setting": "second compound 0.316 µM, first compound 0.3 µM", "result": 71.1, "unit": "%"},
      {"measurement": "viability, T/C", "setting": "second compound 0.316 µM, first compound 0.949 µM", "result": 65.8, "unit": "%"},
      {"measurement": "viability, T/C", "setting": "second compound 0.316 µM, first compound 3 µM", "result": 52.4, "unit": "%"},
      {"measurement": "viability, T/C", "setting": "second compound 1 µM, first compound 0.00949 µM", "result": 77.2, "unit": "%"},
      {"measurement": "viability, T/C", "setting": "second compound 1 µM, first compound 0.03 µM", "result": 73.7, "unit": "%"},
      {"measurement": "viability, T/C", "setting": "second compound 1 µM, first compound 0.0949 µM", "result": 66, "unit": "%"},
      {"measurement": "viability, T/C", "setting": "second compound 1 µM, first compound 0.3 µM", "result": 67.6, "unit": "%"},
      {"measurement": "viability, T/C", "setting": "second compound 1 µM, first compound 0.949 µM", "result": 64.9, "unit": "%"},
      {"measurement": "viability, T/C", "setting": "second compound 1 µM, first compound 3 µM", "result": 50.7, "unit": "%"},
      {"measurement": "viability, T/C", "setting": "second compound 3.16 µM, first compound 0.00949 µM", "result": 57, "unit": "%"},
      {"measurement": "viability, T/C", "setting": "second compound 3.16 µM, first compound 0.03 µM", "result": 58.5, "unit": "%"},
      {"measurement": "viability, T/C", "setting": "second compound 3.16 µM, first compound 0.0949 µM", "result": 51, "unit": "%"},
      {"measurement": "viability, T/C", "setting": "second compound 3.16 µM, first compound 0.3 µM", "result": 49.2, "unit": "%"},
      {"measurement": "viability, T/C", "setting": "second compound 3.16 µM, first compound 0.949 µM", "result": 41.4, "unit": "%"},
      {"measurement": "viability, T/C", "setting": "second compound 3.16 µM, first compound 3 µM", "result": 36.5, "unit": "%"},
      {"measurement": "viability, T/C", "setting": "second compound 10 µM, first compound 0.00949 µM", "result": 48.7, "unit": "%"},
      {"measurement": "viability, T/C", "setting": "second compound 10 µM, first compound 0.03 µM", "result": 44.8, "unit": "%"},
      {"measurement": "viability, T/C", "setting": "second compound 10 µM, first compound 0.0949 µM", "result": 41.4, "unit": "%"},
      {"measurement": "viability, T/C", "setting": "second compound 10 µM, first compound 0.3 µM", "result": 39.4, "unit": "%"},
      {"measurement": "viability, T/C", "setting": "second compound 10 µM, first compound 0.949 µM", "result": 35.9, "unit": "%"},
      {"measurement": "viability, T/C", "setting": "second compound 10 µM, first compound 3 µM", "result": 27.6, "unit": "%"}
    ]}
  ]
}
